Data on one substance can be found in article PMC10040380 (Cell Reports Medicine, 2023).

This experiment addresses T1, KCC2 (Homo sapiens, UniProt Q9H2X9).
T1 sequence (Q9H2X9 1-1116 isoform Q9H2X9-2): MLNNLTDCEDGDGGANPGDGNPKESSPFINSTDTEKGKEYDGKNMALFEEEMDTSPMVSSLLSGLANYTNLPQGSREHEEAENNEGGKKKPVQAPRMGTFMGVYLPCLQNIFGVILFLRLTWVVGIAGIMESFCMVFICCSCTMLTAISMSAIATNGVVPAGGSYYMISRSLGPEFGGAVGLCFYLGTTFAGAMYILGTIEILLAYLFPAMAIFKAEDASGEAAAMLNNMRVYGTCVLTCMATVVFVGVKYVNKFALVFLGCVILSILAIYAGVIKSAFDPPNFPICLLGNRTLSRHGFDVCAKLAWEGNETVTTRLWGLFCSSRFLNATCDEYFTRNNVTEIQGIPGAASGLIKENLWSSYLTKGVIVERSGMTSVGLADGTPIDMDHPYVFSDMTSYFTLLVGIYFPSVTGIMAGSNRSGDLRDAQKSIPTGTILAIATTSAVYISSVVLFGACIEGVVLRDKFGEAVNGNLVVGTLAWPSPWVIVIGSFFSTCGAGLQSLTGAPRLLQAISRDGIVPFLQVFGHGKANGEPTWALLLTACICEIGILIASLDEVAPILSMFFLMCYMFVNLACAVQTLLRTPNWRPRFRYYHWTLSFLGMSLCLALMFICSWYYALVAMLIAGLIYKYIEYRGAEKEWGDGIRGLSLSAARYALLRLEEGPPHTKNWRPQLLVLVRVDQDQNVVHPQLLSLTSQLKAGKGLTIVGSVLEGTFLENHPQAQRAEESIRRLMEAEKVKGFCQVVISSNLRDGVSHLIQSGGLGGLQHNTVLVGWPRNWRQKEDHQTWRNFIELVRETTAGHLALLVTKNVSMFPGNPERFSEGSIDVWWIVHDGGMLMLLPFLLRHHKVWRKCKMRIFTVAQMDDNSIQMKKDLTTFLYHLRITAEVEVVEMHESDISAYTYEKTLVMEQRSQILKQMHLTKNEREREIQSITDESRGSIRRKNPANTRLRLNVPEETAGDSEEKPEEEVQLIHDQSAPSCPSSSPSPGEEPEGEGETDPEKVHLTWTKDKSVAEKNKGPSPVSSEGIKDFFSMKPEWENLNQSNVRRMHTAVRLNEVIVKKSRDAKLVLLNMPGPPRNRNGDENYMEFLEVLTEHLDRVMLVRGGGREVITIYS
Nature of the experiment: Tl influx FLIPR assay in HEK-293 cells expressing KCC2. It is filed as cell-based.

Take OV350 [compound 350]: the response was half-maximal at 261 ± 22.2 nM (EC50).
